These results are taken from patent publication US12653774B2, “Topical compositions and methods for using same” (MARY KAY INC., priority 2022, dated 2026).

The target in the test is T1, TRPV-1 (Rattus norvegicus, UniProt O35433).
T1 construct: host or cells: PC 12 cells
Kind of test: Capsaicin induced TRPV-1 mediated calcium flux assay (Fura-2AM) in PC 12 cells. Format: cell-based. As to the method:
Briefly, Ca^2+ influx was used as a measure of TRPV-1 activity. PC 12 cells (ATCC CRL-1721) were pre-incubated for 4 hours at 37° C. with the respective noted compounds (e.g., plankton extract (test), or capsazepine (positive control)). Following pre-incubation, treatment media was removed and cells were incubated with 100 μl of 0.67 μM Fura-2-acetoxymethyl ester ((Fura-2AM), a high affinity, intracellular calcium indicator that is ratiometric and UV light—excitable) for 1 hour at 37° C. After incubation, cells were treated with 200 μM of capsaicin to induce TRPV-1 mediated Ca^2+ flux response and fluorescence readings were taken every 7 seconds for 10 minutes at 360/460 nm. Data was normalized to controls, plotted as shown, and area under the curve (AUC) values were determined (see Table 2).
Briefly, Ca^2+ influx was used as a measure of TRPV-1 activity. PC 12 cells (ATCC CRL-1721) were pre-incubated for 4 hours at 37° C. with the respective test compounds. Following pre-incubation, treatment media was removed and cells were incubated with 100 μl of 0.67 μM Fura-2AM for 1 hour at 37° C. After incubation, cells were treated with 200 μM of capsaicin to induce TRPV-1 mediated Ca^2+ flux response and fluorescence readings were taken every 7 seconds for 10 minutes at 360/460 nm. Data was normalized to controls, plotted as shown, and AUC values were determined (see Table 2).
Ingredient samples were analyzed for their ability to inhibit calcium flux production in PC 12 cells (ATCC CRL-1721). PC 12 cells were maintained and passaged according to the manufacturer's recommended guidelines. For experiments, 1×10^5 cells/well were plated in 96 well black flat bottom plates. Fura-2-Acetoxymethyl ester (Fura-2AM) calcium detection assay kit (Cayman Chemical #14591) was used to detect calcium in the cells post treatment. Capsaicin (Sigma #M202) was used to trigger a response, and capsazepine (Sigma #C191) was used as a positive control. In brief, Ca2^+ influx was used as a measure of TRPV-1 activity. PC 12 cells (ATCC CRL-1721) were pre-incubated for 4 hours at 37° C. with the respective test compounds. Following pre-incubation, treatment media was removed and cells were incubated with 100 μl of 0.67 μM Fura-2AM for 1 hour at 37° C. After incubation, cells were treated with 200μM of capsaicin to induce TRPV-1 mediated Ca^2+ flux response and fluorescence readings were taken every 7 seconds for 10 minutes at 360/460 nm. Following the test period, buffer was removed and 100 μl diluted MTS reagent was added to each well. Cells were incubated for 15 to 30 minutes at 37° C. 5% CO2, and plates were then read at 490 nm. Cell viability was assessed prior to analyzing for calcium flux.
Fluorescence test data was normalized to controls to generate area under the curve (AUC) values. For each control and test, fluorescence arbitrary units (AU) were normalized to controls for timepoints 0, and 0.5-9 minutes. The normalized data was plotted on an XY graph using GraphPad Prism software to generate a calcium flux curve, with time on the X axis, and normalized AU on the Y axis. The AUC was then calculated for the untreated control, and net AUC was determined for each test and control condition.
For orientation: Calcium assays in cells follow changes in intracellular calcium, usually with a dye or a luminescent sensor.

The mark [1] stands for this setting: 400 μM, pre-incubation 4 hours, then 200 μM capsaicin, positive control.

T1 sequence (O35433 whole entry): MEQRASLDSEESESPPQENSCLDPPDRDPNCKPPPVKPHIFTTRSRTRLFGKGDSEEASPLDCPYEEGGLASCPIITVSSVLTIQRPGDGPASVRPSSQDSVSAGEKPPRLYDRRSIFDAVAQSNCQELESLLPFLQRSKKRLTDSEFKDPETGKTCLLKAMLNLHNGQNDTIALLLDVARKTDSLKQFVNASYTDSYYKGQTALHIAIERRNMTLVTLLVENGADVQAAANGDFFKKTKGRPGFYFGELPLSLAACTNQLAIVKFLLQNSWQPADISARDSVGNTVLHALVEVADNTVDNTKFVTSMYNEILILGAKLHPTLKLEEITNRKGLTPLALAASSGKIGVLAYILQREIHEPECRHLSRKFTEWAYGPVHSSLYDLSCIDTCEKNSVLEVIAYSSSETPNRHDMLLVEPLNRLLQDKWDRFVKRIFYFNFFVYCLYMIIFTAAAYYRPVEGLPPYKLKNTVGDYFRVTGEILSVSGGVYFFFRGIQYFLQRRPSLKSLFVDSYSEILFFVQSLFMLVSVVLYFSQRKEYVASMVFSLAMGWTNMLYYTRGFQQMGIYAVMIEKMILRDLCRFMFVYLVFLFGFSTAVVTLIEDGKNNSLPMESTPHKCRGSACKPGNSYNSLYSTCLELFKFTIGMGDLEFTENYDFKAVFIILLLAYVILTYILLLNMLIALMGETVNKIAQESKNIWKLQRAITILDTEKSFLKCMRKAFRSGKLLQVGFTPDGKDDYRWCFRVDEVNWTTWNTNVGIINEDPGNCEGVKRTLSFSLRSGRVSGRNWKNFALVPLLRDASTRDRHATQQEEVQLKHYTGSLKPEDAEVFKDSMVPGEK

Turning to `COc1cc(CNC(=O)CCCC/C=C/C(C)C)ccc1O` [Capsaicin], the “Delta compared to untreated” value (200 μM, net AUC vs untreated baseline 9.009, negative control) is on record as 0.944. Moreover, the AUC (200 μM, normalized Ca2+ flux curve, PC 12 cells, negative control) is reported as 9.953. Moreover, where the note is “200 μM, relative to capsazepine 400 μM, negative control”, the “Percentage activity compared to positive control” value is reported as −453.56%.

For `Oc1cc2c(cc1O)CN(C(=S)NCCc1ccc(Cl)cc1)CCC2` [Capsazepine, capsazepine], under setting [1], the AUC is listed as 8.742 and the “Delta compared to untreated” value is −0.267. In addition, the “Percentage activity compared to positive control” value (400 μM, the positive control itself) is reported as “NA (0) %”.
